Data on one compound can be found in paper PMC5218480 (PLoS ONE, 2017).

The experiment deals with MV-4-11 cells. Put plainly: Gene expression microarray analysis (Affymetrix PrimeView) and GSEA. More on the design: RFU PODN (11730768_x_at) / Fold change /veh PODN (11730768_x_at) / RFU LINC00158 (11744669_a_at) / Fold change /veh LINC00158 (11744669_a_at) / RFU DUSP10 (11751237_a_at) / Fold change /veh DUSP10 (11751237_a_at) / RFU ID3 (11757404_x_at) / Fold change /veh ID3 (11757404_x_at) / RFU PLEKHG5 (11737974_s_at) / Fold change /veh PLEKHG5 (11737974_s_at) / RFU LRRC4B (11730491_at) / Fold change /veh LRRC4B (11730491_at) / RFU GIMAP4 (11747438_a_at) / Fold change /veh GIMAP4 (11747438_a_at) / RFU KRT8 (11758183_x_at) / Fold change /veh KRT8 (11758183_x_at) / RFU CNN1 (11734310_a_at) / Fold change /veh CNN1 (11734310_a_at) / RFU VPS37D (11726825_at) / Fold change /veh VPS37D (11726825_at) / RFU C10orf10 (11716522_x_at) / Fold change /veh C10orf10 (11716522_x_at) / RFU KIR2DL2 /// KIR2DL4 /// KIR2DL5A /// KIR2DL5B /// KIR2DS1 /// KIR2DS2 /// KIR2DS3 /// KIR2DS4 /// KIR3DL3 /// KIR3DL3 /// KIR3DS1 (11738374_at) / Fold change /veh KIR2DL2 /// KIR2DL4 /// KIR2DL5A /// KIR2DL5B /// KIR2DS1 /// KIR2DS2 /// KIR2DS3 /// KIR2DS4 /// KIR3DL3 /// KIR3DL3 /// KIR3DS1 (11738374_at) / RFU C1QL1 (11718748_at) / Fold change /veh C1QL1 (11718748_at) / RFU TMPRSS4 (11747572_a_at) / Fold change /veh TMPRSS4 (11747572_a_at) / RFU HAMP (11756126_x_at) / Fold change /veh HAMP (11756126_x_at) / RFU RNFT2 (11725882_a_at) / Fold change /veh RNFT2 (11725882_a_at) / RFU NR4A2 (11747474_a_at) / Fold change /veh NR4A2 (11747474_a_at) / RFU ABCC12 (11746883_a_at) / Fold change /veh ABCC12 (11746883_a_at) / RFU TMEM136 (11760407_x_at) / Fold change /veh TMEM136 (11760407_x_at) / RFU CLDN22 /// WWC2 (11732394_at) / Fold change /veh CLDN22 /// WWC2 (11732394_at) / RFU HLA-DPB1 (11760878_x_at) / Fold change /veh HLA-DPB1 (11760878_x_at) / RFU SPINT1 (11716480_a_at) / Fold change /veh SPINT1 (11716480_a_at) / RFU GAP43 (11754022_s_at) / Fold change /veh GAP43 (11754022_s_at) / RFU A4GNT (11735810_at) / Fold change /veh A4GNT (11735810_at) / RFU PRB3 (11715151_x_at) / Fold change /veh PRB3 (11715151_x_at) / RFU TUBB4B (11761932_at) / Fold change /veh TUBB4B (11761932_at) / RFU CAPN14 (11732068_a_at) / Fold change /veh CAPN14 (11732068_a_at) / RFU TMCC2 (11721928_a_at) / Fold change /veh TMCC2 (11721928_a_at) / RFU IRGQ (11745062_a_at) / Fold change /veh IRGQ (11745062_a_at) / RFU FAM174B (11720279_a_at) / Fold change /veh FAM174B (11720279_a_at) / RFU TMPRSS4 (11748680_a_at) / Fold change /veh TMPRSS4 (11748680_a_at) / RFU FAM212B (11763350_a_at) / Fold change /veh FAM212B (11763350_a_at) / RFU PLEKHG5 (11743358_a_at) / Fold change /veh PLEKHG5 (11743358_a_at) / RFU ZSCAN30 (11745921_a_at) / Fold change /veh ZSCAN30 (11745921_a_at) / RFU CMKLR1 (11741424_a_at) / Fold change /veh CMKLR1 (11741424_a_at) / RFU LOC101060620 /// MAPK8IP1 (11723275_at) / Fold change /veh LOC101060620 /// MAPK8IP1 (11723275_at) / RFU SPTSSB (11747773_x_at) / Fold change /veh SPTSSB (11747773_x_at) / RFU PRSS12 (11739890_at) / Fold change /veh PRSS12 (11739890_at) / RFU BIN1 (11741810_x_at) / Fold change /veh BIN1 (11741810_x_at) / RFU WNT11 (11732464_a_at) / Fold change /veh WNT11 (11732464_a_at) / RFU C10orf10 (11716521_a_at) / Fold change /veh C10orf10 (11716521_a_at) / RFU C5orf56 (11738089_at) / Fold change /veh C5orf56 (11738089_at) / RFU CYB561 (11721691_x_at) / Fold change /veh CYB561 (11721691_x_at) / RFU ANKRD19P (11752326_a_at) / Fold change /veh ANKRD19P (11752326_a_at) / RFU OR2T12 /// OR2T33 /// OR2T8 (11738714_s_at) / Fold change /veh OR2T12 /// OR2T33 /// OR2T8 (11738714_s_at) / RFU VCAN (11748164_a_at) / Fold change /veh VCAN (11748164_a_at) / RFU JSRP1 (11732532_at) / Fold change /veh JSRP1 (11732532_at) / RFU KRTAP10-11 (11738290_x_at) / Fold change /veh KRTAP10-11 (11738290_x_at) / RFU MYO3A (11730013_a_at) / Fold change /veh MYO3A (11730013_a_at) / RFU EBF3 (11725865_a_at) / Fold change /veh EBF3 (11725865_a_at) / RFU CAMK2N1 (11719241_x_at) / Fold change /veh CAMK2N1 (11719241_x_at) / RFU C5orf56 (11738088_a_at) / Fold change /veh C5orf56 (11738088_a_at) / RFU OLFML3 (11715873_a_at) / Fold change /veh OLFML3 (11715873_a_at) / RFU LOC100653217 /// NTM (11731650_a_at) / Fold change /veh LOC100653217 /// NTM (11731650_a_at) / RFU MAPK11 (11762145_a_at) / Fold change /veh MAPK11 (11762145_a_at) / RFU FIZ1 (11724087_x_at) / Fold change /veh FIZ1 (11724087_x_at) / RFU OASL (11726364_x_at) / Fold change /veh OASL (11726364_x_at) / RFU SOX15 (11748057_x_at) / Fold change /veh SOX15 (11748057_x_at) / RFU CD79A (11719716_a_at) / Fold change /veh CD79A (11719716_a_at) / RFU HIST1H1D (11736915_at) / Fold change /veh HIST1H1D (11736915_at) / RFU CASKIN2 (11723855_a_at) / Fold change /veh CASKIN2 (11723855_a_at) / RFU LOC730098 (11760151_x_at) / Fold change /veh LOC730098 (11760151_x_at) / RFU OR4N2 (11742367_at) / Fold change /veh OR4N2 (11742367_at) / RFU PRRT2 (11749266_a_at) / Fold change /veh PRRT2 (11749266_a_at) / RFU SNX32 (11753110_a_at) / Fold change /veh SNX32 (11753110_a_at) / RFU CDHR5 (11726645_a_at) / Fold change /veh CDHR5 (11726645_a_at) / RFU RCAN1 (11760418_a_at) / Fold change /veh RCAN1 (11760418_a_at) / RFU FAM167A (11723789_a_at) / Fold change /veh FAM167A (11723789_a_at) / RFU FAM26E (11764081_at) / Fold change /veh FAM26E (11764081_at) / RFU ISYNA1 (11749810_s_at) / Fold change /veh ISYNA1 (11749810_s_at) / RFU ACY1 (11761880_at) / Fold change /veh ACY1 (11761880_at) / RFU 11764098_at / Fold change /veh 11764098_at / RFU SAMD14 (11745864_x_at) / Fold change /veh SAMD14 (11745864_x_at) / RFU NPB (11741838_a_at) / Fold change /veh NPB (11741838_a_at) / RFU TMPRSS6 (11731388_a_at) / Fold change /veh TMPRSS6 (11731388_a_at) / RFU KRTAP10-2 (11738614_at) / Fold change /veh KRTAP10-2 (11738614_at) / RFU ARHGAP8 /// PRR5-ARHGAP8 (11727945_x_at) / Fold change /veh ARHGAP8 /// PRR5-ARHGAP8 (11727945_x_at) / RFU KRTAP5-7 /// NADSYN1 (11734609_at) / Fold change /veh KRTAP5-7 /// NADSYN1 (11734609_at) / RFU RASL12 (11751679_a_at) / Fold change /veh RASL12 (11751679_a_at) / RFU CDKN2B (11736163_a_at) / Fold change /veh CDKN2B (11736163_a_at) / RFU PRF1 (11729649_at) / Fold change /veh PRF1 (11729649_at) / RFU, ZNF638 /// ZNF638-IT1 / Fold change vs veh, ZNF638 /// ZNF638-IT1 / RFU, PANK3 / Fold change vs veh, PANK3 / RFU, SH3YL1 / Fold change vs veh, SH3YL1 / RFU, ZEB2 / Fold change vs veh, ZEB2 / RFU, NRIP1 / Fold change vs veh, NRIP1 / RFU, PTTG1IP / Fold change vs veh, PTTG1IP / RFU, CAPN2 / Fold change vs veh, CAPN2 / RFU, MED14 / Fold change vs veh, MED14 / RFU, SNORA58 / Fold change vs veh, SNORA58 / RFU, C1orf63 / Fold change vs veh, C1orf63 / RFU, LRRFIP1 / Fold change vs veh, LRRFIP1 / RFU, NDUFAF7 / Fold change vs veh, NDUFAF7 / RFU, SLC12A2 / Fold change vs veh, SLC12A2 / RFU, IBTK / Fold change vs veh, IBTK / RFU, ESF1 / Fold change vs veh, ESF1 / Fold change vs veh, TMEM50B / RFU, TAOK1 / Fold change vs veh, TAOK1 / RFU, ACBD3 / Fold change vs veh, ACBD3 / RFU, TMA16 / Fold change vs veh, TMA16 / RFU, RWDD3 / Fold change vs veh, RWDD3 / RFU, BCAT1 / Fold change vs veh, BCAT1 / RFU, EDEM3 / Fold change vs veh, EDEM3 / RFU, TMEM33 / Fold change vs veh, TMEM33 / RFU, WDR75 / Fold change vs veh, WDR75 / RFU, AHCTF1 / Fold change vs veh, AHCTF1 / RFU, TFRC / Fold change vs veh, TFRC / RFU, ZDHHC17 / Fold change vs veh, ZDHHC17 / RFU, NOM1 / Fold change vs veh, NOM1 / RFU, ARL8B / Fold change vs veh, ARL8B / RFU, ZBTB11 / Fold change vs veh, ZBTB11 / RFU, TAMM41 / Fold change vs veh, TAMM41 / RFU, KIAA1704 /// LOC100996395 / Fold change vs veh, KIAA1704 /// LOC100996395 / RFU, ING1 / Fold change vs veh, ING1 / RFU, TRMT61B / Fold change vs veh, TRMT61B / RFU, FUBP3 / Fold change vs veh, FUBP3 / RFU, TP53 / Fold change vs veh, TP53 / RFU, TNKS2 / Fold change vs veh, TNKS2 / RFU, ZFP14 / Fold change vs veh, ZFP14 / RFU, ACTR2 / Fold change vs veh, ACTR2 / RFU, PPP3R1 / Fold change vs veh, PPP3R1 / RFU, PIK3R1 / Fold change vs veh, PIK3R1 / RFU, HNRNPA1 / Fold change vs veh, HNRNPA1 / RFU, RNF170 / Fold change vs veh, RNF170 / RFU, ZNF28 / Fold change vs veh, ZNF28 / RFU, RNGTT / Fold change vs veh, RNGTT / RFU, OGT / Fold change vs veh, OGT / RFU, BRD1 / Fold change vs veh, BRD1 / RFU, MARS / Fold change vs veh, MARS / RFU, ZNF655 / Fold change vs veh, ZNF655 / RFU, FAHD1 / Fold change vs veh, FAHD1 / RFU, BDP1 / Fold change vs veh, BDP1 / RFU, LRRCC1 / Fold change vs veh, LRRCC1 / RFU, ARID1A / Fold change vs veh, ARID1A / RFU, ZNF146 / Fold change vs veh, ZNF146 / RFU, ZNF330 / Fold change vs veh, ZNF330 / RFU, GPN3 / Fold change vs veh, GPN3 / RFU, C9orf123 / Fold change vs veh, C9orf123 / RFU, N4BP2L2 / Fold change vs veh, N4BP2L2 / RFU, ARFIP1 / Fold change vs veh, ARFIP1 / RFU, FAM179B / Fold change vs veh, FAM179B / RFU, BCL10 / Fold change vs veh, BCL10 / RFU, UHRF1BP1L / Fold change vs veh, UHRF1BP1L / RFU, BET1 / Fold change vs veh, BET1 / RFU, CNOT2 / Fold change vs veh, CNOT2 / RFU, ZNF268 / Fold change vs veh, ZNF268 / Fold change vs veh, ZNF507 / RFU, DGCR2 / Fold change vs veh, DGCR2 / RFU, WDSUB1 / Fold change vs veh, WDSUB1 / Fold change vs veh, HSP90B1 /// MIR3652 / RFU, ADSS / Fold change vs veh, ADSS / RFU, GK / Fold change vs veh, GK / RFU, ZNF148 / Fold change vs veh, ZNF148 / RFU, TAF9 / Fold change vs veh, TAF9 / RFU, SLC1A5 / Fold change vs veh, SLC1A5 / RFU, SLMO2 / Fold change vs veh, SLMO2 / RFU, ABCC4 / Fold change vs veh, ABCC4 / RFU, LOC101060439 /// RAP1B / Fold change vs veh, LOC101060439 /// RAP1B / RFU, RFX7 / Fold change vs veh, RFX7 / RFU, GTPBP10 / Fold change vs veh, GTPBP10 / RFU, CNEP1R1 / Fold change vs veh, CNEP1R1 / RFU, BIVM-ERCC5 /// ERCC5 / Fold change vs veh, BIVM-ERCC5 /// ERCC5 / RFU, ILF3 / Fold change vs veh, ILF3 / RFU 11762660_at / Fold change /veh 11762660_at / RFU VCAN (11757783_s_at) / Fold change /veh VCAN (11757783_s_at) / RFU DDX43 (11728927_at) / Fold change /veh DDX43 (11728927_at) / RFU KRT8 (11758188_x_at) / Fold change /veh KRT8 (11758188_x_at) / RFU NKD1 (11759106_at) / Fold change /veh NKD1 (11759106_at) / RFU SRD5A1 (11742802_a_at) / Fold change /veh SRD5A1 (11742802_a_at) / RFU TPSAB1 /// TPSB2 (11721975_s_at) / Fold change /veh TPSAB1 /// TPSB2 (11721975_s_at) / RFU GSTM3 (11746129_a_at) / Fold change /veh GSTM3 (11746129_a_at) / RFU IL23R (11737362_x_at) / Fold change /veh IL23R (11737362_x_at) / RFU TMEM51 (11727254_a_at) / Fold change /veh TMEM51 (11727254_a_at) / RFU PIWIL2 (11732686_x_at) / Fold change /veh PIWIL2 (11732686_x_at) / RFU ORM1 (11744905_x_at) / Fold change /veh ORM1 (11744905_x_at) / RFU CCDC152 (11743942_at) / Fold change /veh CCDC152 (11743942_at) / RFU ECM1 (11717891_a_at) / Fold change /veh ECM1 (11717891_a_at) / RFU IL23R (11748794_a_at) / Fold change /veh IL23R (11748794_a_at) / RFU TNFAIP8L3 (11732012_x_at) / Fold change /veh TNFAIP8L3 (11732012_x_at) / RFU MBOAT4 (11741988_at) / Fold change /veh MBOAT4 (11741988_at) / RFU 11764193_at / Fold change /veh 11764193_at / RFU TMEM53 (11763286_at) / Fold change /veh TMEM53 (11763286_at) / RFU MAGEB2 (11727129_at) / Fold change /veh MAGEB2 (11727129_at) / RFU TMEM200A (11744735_a_at) / Fold change /veh TMEM200A (11744735_a_at) / RFU CCDC152 (11751479_a_at) / Fold change /veh CCDC152 (11751479_a_at) / RFU FAM211A (11726209_a_at) / Fold change /veh FAM211A (11726209_a_at) / RFU RGS16 (11746705_a_at) / Fold change /veh RGS16 (11746705_a_at) / RFU VCAN (11755009_s_at) / Fold change /veh VCAN (11755009_s_at) / RFU RHOB (11743442_s_at) / Fold change /veh RHOB (11743442_s_at) / RFU RGS16 (11720943_a_at) / Fold change /veh RGS16 (11720943_a_at) / RFU RGS16 (11720944_at) / Fold change /veh RGS16 (11720944_at) / RFU, VPS4B / Fold change vs veh, VPS4B / RFU, CREB1 / Fold change vs veh, CREB1 / RFU, DNAJC13 / Fold change vs veh, DNAJC13 / RFU, GNAQ / Fold change vs veh, GNAQ / RFU, CDK5R1 / Fold change vs veh, CDK5R1 / RFU, ZRANB3 / Fold change vs veh, ZRANB3 / RFU, CUL4A / Fold change vs veh, CUL4A / RFU, CCNY / Fold change vs veh, CCNY / RFU, UFL1 / Fold change vs veh, UFL1 / RFU, COG3 / Fold change vs veh, COG3 / RFU, DIAPH2 / Fold change vs veh, DIAPH2 / RFU, SKA2 / Fold change vs veh, SKA2 / RFU, AFF3 / Fold change vs veh, AFF3 / RFU, LMF1 / Fold change vs veh, LMF1 / RFU, IPO11 / Fold change vs veh, IPO11 / RFU, DFFB / Fold change vs veh, DFFB / RFU, FOXP1 / Fold change vs veh, FOXP1 / RFU, CARD8 / Fold change vs veh, CARD8 / RFU, STRN3 / Fold change vs veh, STRN3 / RFU, ADK / Fold change vs veh, ADK / RFU, RASSF2 / Fold change vs veh, RASSF2 / RFU, WIPF1 / Fold change vs veh, WIPF1 / RFU, LARP1B / Fold change vs veh, LARP1B / RFU, RASA1 / Fold change vs veh, RASA1 / RFU, RB1 / Fold change vs veh, RB1 / RFU, PPFIA1 / Fold change vs veh, PPFIA1 / RFU, MAT2A / Fold change vs veh, MAT2A / RFU, CCT5 / Fold change vs veh, CCT5 / RFU, WDR92 / Fold change vs veh, WDR92 / RFU, CUX1 / Fold change vs veh, CUX1 / RFU, TTC7A / Fold change vs veh, TTC7A / RFU, TMEM135 / Fold change vs veh, TMEM135 / RFU, DEPTOR / Fold change vs veh, DEPTOR / RFU, CPM / Fold change vs veh, CPM / RFU, DNAJB6 / Fold change vs veh, DNAJB6 / RFU, CACNA2D3 / Fold change vs veh, CACNA2D3 / RFU, DTX4 / Fold change vs veh, DTX4 / RFU, TFCP2 / Fold change vs veh, TFCP2 / RFU, GMCL1 /// GMCL1P1 / Fold change vs veh, GMCL1 /// GMCL1P1 / RFU, AEBP2 / Fold change vs veh, AEBP2 / RFU, SNHG1 /// SNORD22 /// SNORD25 /// SNORD26 /// SNORD27 /// SNORD28 /// SNORD29 /// SNORD31 / Fold change vs veh, SNHG1 /// SNORD22 /// SNORD25 /// SNORD26 /// SNORD27 /// SNORD28 /// SNORD29 /// SNORD31 / Fold change (Aza/veh), C12orf56 (ProbeSet 11735607_a_at) / Fold change (ACY-1035/veh), C12orf56 (ProbeSet 11735607_a_at) / Fold change (Aza/veh), FGFR1OP (ProbeSet 11751329_s_at) / Fold change (ACY-1035/veh), FGFR1OP (ProbeSet 11751329_s_at) / Fold change (Aza/veh), VPS36 (ProbeSet 11739960_a_at) / Fold change (ACY-1035/veh), VPS36 (ProbeSet 11739960_a_at) / RFU SYPL1 (11715823_x_at) / Fold change /veh SYPL1 (11715823_x_at) / RFU IGFBP7 (11715501_s_at) / Fold change /veh IGFBP7 (11715501_s_at) / RFU REEP3 (11722064_at) / Fold change /veh REEP3 (11722064_at) / RFU IGLL1 (11728026_x_at) / Fold change /veh IGLL1 (11728026_x_at): dose or concentration left out as unconfirmed. The note with it: ProbeSet 11732306_x_at; LIST D. Type of experiment: cell-based, human.

For `Nc1ncn([C@@H]2O[C@H](CO)[C@@H](O)[C@H]2O)c(=O)n1` [azacitidine], the “RFU, CREB1” value turned out to be 273.21 RFU.
